Data set [1] concerns the target T1, BACE1 (Homo sapiens, UniProt P56817).
T1 construct: Human HEK293 cells which are stably transfected with a vector expressing a cDNA of the human APP wt gene (APP695); endogenous in cells; host or cells: HEK293 stably transfected with human APP695 wt
As to the kind of experiment: Cellular Aβ-lowering assay (Aβ40 ELISA). The data set is classed as cell-based. Particulars: HEK293 cells stably expressing human APP wt (APP695); Aβ40 in supernatant after 18-20 hrs; read-out: BACE1 cell act. Aβ40 IC50. The method in brief: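 Secreted Aβ40 in the supernatant was measured by sandwich ELISA (C-terminal Aβ40 capture, HRP-4G8 detection, 450 nm) against an Aβ peptide standard curve.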
For orientation: ELISA stands for enzyme-linked immunosorbent assay.

The target in data set [2] is T2, hERG channel (Homo sapiens, UniProt Q12809).
T2 construct: expressed in transfected cells; host or cells: CHO cells
The data set can be described thus: PatchXpress hERG inhibition assay. The data set is classed as cell-based. As to conditions: @ 1 μM; CHO cells transfected with hERG, automated patch clamp. Here is the method: PatchXpress hERG Inhibition Assay
The detailed method to quantify hERG channel inhibition by the automated patch clamp system PatchXpress® 7000A (Molecular Devices, Sunnyvale, Calif.) has been described by Guo et al. (J of Pharmacol & Tox Methods, (2005) 52(1):123-35). In brief, Chinese hamster ovary (CHO) cells transfected with the human ether-a-go-go-related gene (hERG) was cultured in Ex-cell 302 media supplemented with 10% fetal bovine serum, 2 mM glutamine and 0.25 mg/ml geneticin and maintained in a CO2 incubator at 37° C. For patch clamp electrophysiology, the external buffer contained (in mM): 150 NaCl, 10 Hepes, 4 KCl, 1.2 CaCl2, 1 MgCl2, pH 7.4 adjusted with […] and the internal recording solution contained (in mM): 140 KCl, 6 EGTA, 5 Hepes, MgCl2, 5 ATP-Na2, pH 7.2 adjusted with KOH. Once the cell was loaded in the recording chamber and formed a giga ohm seal with the planar glass electrodes (Sealchip™), a whole-cell configuration was achieved by rupturing the cell membrane. The membrane potential was then clamped at −80 mV and the hERG channel activated by a 1-second depolarizing pulse delivered at 0.1 Hz, the hERG current was measured during the 500 ms-repolarizing pulse to −40 mV. After an acceptable hERG current recording was obtained, the cell was first exposed to 0.3% DMSO as the vehicle control, followed by the test article in three ascending, full-log interval concentrations and finally E-4031 at 1 μM (as the positive control) to block the hERG current completely. […] The inhibition of hERG current at each concentration was normalized to that recorded in the vehicle control, and fitted with Hill equation to calculate IC20 and/or IC50.
In general terms: Block of hERG is tested as a sign of cardiac risk.

The target of data set [3] is T3, CYP3A4 (Homo sapiens, UniProt P08684).
T3 construct: 0.2 mg/ml pooled human liver microsomes; from tissue; host or cells: pooled human liver microsomes
The data set can be described thus: CYP inhibition assay, CYP3A4. It is filed as in vitro ADME. As to conditions: human liver microsomes, midazolam 1' hydroxylase; read-out: CYP IC50 3A4. Here is the method:
Inhibition of cytochromes P450 (CYPs) 2C9, 2D6 and 3A4 was assessed using human liver microsomes and CYP-selective substrate metabolism reactions. 50 μl incubations were made up containing (finally) 0.2 mg/ml pooled human liver microsomes, 5 μM substrate (diclofenac for CYP2C9 [4′ hydroxylase], dextromethorphan for CYP2D6 [O-demethylase] or midazolam for CYP3A4 [1′ hydroxylase]), 0.25 μL DMSO containing test inhibitor and NADPH regenerating system. Test inhibitor concentrations of 50, 16.7, 5.6, 1.9, 0.6 and 0.2 μM were assessed in singlicate. Incubations were pre-warmed to 37° C. for 10 minutes before initiation by addition of NADPH regenerating system. Incubations were quenched after 5 minutes (20 minutes for dextromethorphan) by addition of 50 μl cold acetonitrile containing 20 ng/ml 4-OH-diclofenac-13C6, 20 ng/mL dextrorphan-D3 and 20 ng/mL 1-OH-midazolam-D4. Quenched incubates were stored at −20° C. for at least 1 hour before centrifugation (20,000×g, 20 minutes). Supernatants were removed and diluted 1:1 with water prior to analysis using a RapidFire sample injector system and API4000 mass spectrometer. Peak areas for substrate, metabolite and stable-labelled metabolite standard were determined using MS/MS. The peak area ratios between the metabolite generated by the enzymatic reaction and the internal standard were used in subsequent calculations. The percentage of (DMSO) control activity was calculated for each incubate and IC50 values estimated by non-linear regression. Sulfaphenazole, quinidine or ketoconazole were tested in each CYP2C9, CYP2D6 or CYP3A4 inhibition experiment, respectively, to ensure assay sensitivity and reproducibility. (Validated assays for human cytochrome P450 activities, R. L. Walsky and R. S. Obach, Drug Metabolism and Disposition 32: 647-660, 2004. and S. Fowler and H. Zhang, The AAPS Journal, Vol. 10, No. 2, 410-424, 2008.)
(In general: Liver microsomes are a subcellular fraction often used to study metabolism.)

Each structure is given as a SMILES string.

T2 sequence (Q12809 whole entry): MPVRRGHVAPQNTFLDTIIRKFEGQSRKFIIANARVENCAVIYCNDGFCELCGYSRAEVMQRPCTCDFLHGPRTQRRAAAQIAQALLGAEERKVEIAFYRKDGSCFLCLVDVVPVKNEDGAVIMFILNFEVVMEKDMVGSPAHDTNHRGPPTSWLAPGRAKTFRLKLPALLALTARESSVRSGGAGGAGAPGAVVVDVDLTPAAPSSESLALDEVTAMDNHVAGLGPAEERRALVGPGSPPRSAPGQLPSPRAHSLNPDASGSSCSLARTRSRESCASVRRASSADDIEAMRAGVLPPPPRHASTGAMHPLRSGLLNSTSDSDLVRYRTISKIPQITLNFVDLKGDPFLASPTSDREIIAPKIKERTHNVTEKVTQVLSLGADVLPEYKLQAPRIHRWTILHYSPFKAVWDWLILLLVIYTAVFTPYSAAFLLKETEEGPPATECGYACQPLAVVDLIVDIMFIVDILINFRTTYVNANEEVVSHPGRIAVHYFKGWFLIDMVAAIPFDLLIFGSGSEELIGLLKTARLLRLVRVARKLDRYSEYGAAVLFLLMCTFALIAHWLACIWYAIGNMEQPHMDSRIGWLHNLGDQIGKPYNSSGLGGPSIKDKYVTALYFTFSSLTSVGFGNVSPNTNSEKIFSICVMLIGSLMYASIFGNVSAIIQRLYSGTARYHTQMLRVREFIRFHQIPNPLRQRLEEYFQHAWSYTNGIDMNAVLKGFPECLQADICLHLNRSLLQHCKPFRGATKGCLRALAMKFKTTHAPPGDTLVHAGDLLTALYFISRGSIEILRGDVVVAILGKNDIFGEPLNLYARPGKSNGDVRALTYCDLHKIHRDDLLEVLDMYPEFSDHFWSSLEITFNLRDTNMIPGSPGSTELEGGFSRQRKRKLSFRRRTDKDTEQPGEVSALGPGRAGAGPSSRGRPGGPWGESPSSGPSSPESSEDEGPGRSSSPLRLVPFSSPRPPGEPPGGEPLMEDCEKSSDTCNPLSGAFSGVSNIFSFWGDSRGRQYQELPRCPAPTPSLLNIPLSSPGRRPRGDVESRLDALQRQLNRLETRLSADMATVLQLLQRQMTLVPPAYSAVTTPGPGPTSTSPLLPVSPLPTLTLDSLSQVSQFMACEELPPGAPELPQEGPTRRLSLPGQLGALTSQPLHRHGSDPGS
T1 sequence (P56817 46-501): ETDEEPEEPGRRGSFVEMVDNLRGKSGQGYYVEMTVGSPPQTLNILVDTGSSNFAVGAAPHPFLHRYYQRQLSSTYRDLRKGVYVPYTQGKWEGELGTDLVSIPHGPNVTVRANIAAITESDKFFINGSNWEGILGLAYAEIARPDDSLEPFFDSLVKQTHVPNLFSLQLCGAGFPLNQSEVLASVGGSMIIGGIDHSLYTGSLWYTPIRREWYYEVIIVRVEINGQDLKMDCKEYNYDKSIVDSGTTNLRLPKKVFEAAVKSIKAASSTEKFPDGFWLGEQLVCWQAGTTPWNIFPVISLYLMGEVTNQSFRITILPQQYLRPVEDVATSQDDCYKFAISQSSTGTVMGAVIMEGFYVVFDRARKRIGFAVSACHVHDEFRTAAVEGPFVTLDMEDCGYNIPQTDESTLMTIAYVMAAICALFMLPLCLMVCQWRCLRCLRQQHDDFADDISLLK
T3 sequence (P08684 whole entry): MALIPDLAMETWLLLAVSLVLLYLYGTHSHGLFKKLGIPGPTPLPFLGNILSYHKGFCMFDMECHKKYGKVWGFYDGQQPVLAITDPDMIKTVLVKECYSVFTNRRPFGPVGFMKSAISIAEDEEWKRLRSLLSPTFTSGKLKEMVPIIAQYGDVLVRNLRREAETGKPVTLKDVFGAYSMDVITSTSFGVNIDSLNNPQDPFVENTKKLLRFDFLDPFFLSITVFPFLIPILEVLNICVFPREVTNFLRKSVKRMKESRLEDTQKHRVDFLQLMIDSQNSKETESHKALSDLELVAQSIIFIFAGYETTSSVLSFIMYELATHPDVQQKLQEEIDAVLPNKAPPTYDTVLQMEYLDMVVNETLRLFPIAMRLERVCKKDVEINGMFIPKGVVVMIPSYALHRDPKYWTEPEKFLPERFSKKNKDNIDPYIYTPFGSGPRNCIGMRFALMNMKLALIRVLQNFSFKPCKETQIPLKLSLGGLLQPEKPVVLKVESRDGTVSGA

Consider `NC1=N[C@](CF)(c2cc(NC(=O)c3cnc(C(F)F)cn3)ccc2F)[C@H]2CC(F)(F)C[C@H]2O1` [Example 24, 5-Difluoromethyl-pyrazine-2-carboxylic acid [(S)-3-((1R,2R)-2-amino-6,6-difluoro-4-fluoromethyl-4,4a,5,6,7,7a-hexahydro-cyclopenta[e][1,3]oxazin-4-yl)-4-fluoro-phenyl]-amide], for which the IC50 in data set [1] is 7.9 nM; in data set [3] it was more than 10000 nM. Moreover, the hERG inhibition entry in data set [2] is reported as “B (less than 15% inhibition @ 1 μM)”.
On to `COc1cnc(C(=O)Nc2ccc(F)c([C@@]3(C(F)F)N=C(N)O[C@@H]4CC(F)(F)C[C@@H]43)c2)cn1` [Example 42, 5-Methoxy-pyrazine-2-carboxylic acid [(S)-3-((1R,2R)-2-amino-4-difluoromethyl-6,6-difluoro-4,4a,5,6,7,7a-hexahydro-cyclopenta[e][1,3]oxazin-4-yl)-4-fluoro-phenyl]-amide], for which the IC50 in data set [1] was 30 nM; in data set [3], more than 10000 nM. Also, the hERG inhibition entry in data set [2] is listed as “B (less than 15% inhibition @ 1 μM)”.
As for `N#Cc1ccc(C(=O)Nc2ccc(F)c([C@@]3(C(F)F)N=C(N)O[C@@H]4CC(F)(F)C[C@@H]43)c2)nc1` [Example 36, 5-Cyano-pyridine-2-carboxylic acid [(S)-3-((1R,2R)-2-amino-4-difluoromethyl-6,6-difluoro-4,4a,5,6,7,7a-hexahydro-cyclopenta[e][1,3]oxazin-4-yl)-4-fluoro-phenyl]-amide], the results for the IC50 in data set [1] and in data set [3] were 14.5 nM and more than 10000 nM, respectively. The hERG inhibition result in data set [2] is given as “B (less than 15% inhibition @ 1 μM)”.
The corresponding values for `NC1=N[C@](CF)(c2cc(NC(=O)c3ccc(F)cn3)ccc2F)[C@H]2CC(F)(F)C[C@H]2O1` [Example 7, 5-Fluoro-pyridine-2-carboxylic acid [(S)-3-((1R,2R)-2-amino-6,6-difluoro-4-fluoromethyl-4,4a,5,6,7,7a-hexahydro-cyclopenta[e][1,3]oxazin-4-yl)-4-fluoro-phenyl]-amide] are 16.6 nM, more than 10000 nM and “A (less than 20% inhibition @ 1 μM)”.
As for `N#Cc1ccc(C(=O)Nc2ccc(F)c([C@@]3(CF)N=C(N)O[C@@H]4CC(F)(F)C[C@@H]43)c2)nc1` [Example 3, 5-Cyano-pyridine-2-carboxylic acid [(S)-3-((1R,2R)-2-amino-6,6-difluoro-4-fluoromethyl-4,4a,5,6,7,7a-hexahydro-cyclopenta[e][1,3]oxazin-4-yl)-4-fluoro-phenyl]-amide], the IC50 was 1.5 nM in data set [1] and more than 10000 nM in data set [3]. Further, the hERG inhibition result in data set [2] is reported as “B (less than 15% inhibition @ 1 μM)”.

As a reminder, the IC50 is the concentration needed to halve the response being measured.

Values taken from patent US8476264B2, “N-(3-(2-amino-6,6-difluoro-4,4A,5,6,7,7A-hexahydro-cyclopenta[E][1,3]oxazin-4-yl)-phenylamides as BACE1 inhibitors” (Hoffmann-La Roche Inc., priority 2011, dated 2013).
